Like-named read-outs stand apart in the source and are kept apart here.
Legend:
[1] = molecular target: recombinant human His-tagged MDM2 protein (residues 1-118) (Homo sapiens (Human), UniProt Q00987); assay: Fluorescence-polarization MDM2 binding assay;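 further: fluorescence polarization read after three hours of incubation in potassium phosphate buffer containing bovine gamma globulin and Triton X-100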
[2] = tested on: cancer cell lines with wild-type p53 / mutated or deleted p53 (ATCC); assay: Cell growth assay (WST-8), other cancer cell lines; type: cell-based; conditions: Homo sapiens
[3] = tested on: Isogenic HCT-116 colon cancer cell lines; assay: cells; type: cell-based; conditions: Homo sapiens;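 further: cells grown in 96-well plates in McCoy's 5A medium with 10% FBS, exposed to compound for 4 days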
Method: Cells were seeded in 96-well flat bottom cell culture plates at a density of 2−3×10^3 cells/well with compounds and incubated for 4 days.

[4] = Table 19D, read-out: MDM2 Binding Affinities IC50
[5] = LNCaP, Table 19D, LNCaP cells, read-out: LNCaP IC50
[6] = PC-3, Table 19D, PC3 cells, read-out: PC3 IC50
[7] = HCT-116, read-out: HCT116p53KO IC50, Table 19D, HCT116 p53KO
[8] = HCT-116, read-out: HCT116p53WT IC50, Table 19D, HCT116 p53WT
[9] = Table 19D, SJSA-1 cells, unit inferred, read-out: SJSA-1
[10] = Table 19A, FP binding assay, read-out: MDM2 IC50
[11] = LNCaP, Table 19A, LNCAP cells, p53 wild-type, cell growth, read-out: LNCAP (p53 wild-type) IC50
[12] = PC-3, Table 19A, PC-3 cells, deleted p53, cell growth, read-out: PC-3 (deleted p53) IC50
[13] = HCT-116, read-out: HCT-116 (p53-/-) IC50, Table 19A, HCT-116 p53-/-, cell growth
[14] = HCT-116, read-out: HCT-116 (p53 wild-type) IC50, Table 19A, HCT-116 p53 wild-type, cell growth
[15] = Table 19B, read-out: Binding affinities to MDM2 protein as determined by FP based assay IC50
[16] = LNCaP, Table 19B, LNCaP cells, read-out: Inhibition of cell growth IC50, LNCaP
[17] = PC-3, Table 19B, PC3 cells, read-out: Inhibition of cell growth IC50, PC3
[18] = HCT-116, read-out: Inhibition of cell growth IC50, HCT116 p53 KO, Table 19B, HCT116 p53 KO
[19] = HCT-116, read-out: Inhibition of cell growth IC50, HCT116 p53 WT, Table 19B, HCT116 p53 WT

Chain of recombinant human His-tagged MDM2 protein (residues 1-118) (Q00987 1-118): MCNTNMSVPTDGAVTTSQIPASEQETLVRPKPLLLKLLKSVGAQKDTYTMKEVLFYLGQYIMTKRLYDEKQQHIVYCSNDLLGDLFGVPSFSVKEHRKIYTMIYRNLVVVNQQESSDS

CCCN1CCN(CCNC(=O)[C@@H]2N[C@H](CC(C)(C)C)[C@]3(C(=O)Nc4cc(Cl)c(F)cc43)[C@H]2c2cccc(Cl)c2)CC1 [MI-519-21]
IC50 [1, 4]: < 3 µM
IC50 [2, 5]: 1.5 ± 0.6 µM
IC50 [2, 6]: 4.8 ± 0.4 µM
IC50 [3, 7]: 5.8 ± 1.9 µM
IC50 [3, 8]: 1.4 ± 0.5 µM

CN1CCC(NC(=O)[C@@H]2N[C@H](CC(C)(C)C)[C@]3(C(=O)Nc4cc(Cl)ccc43)[C@H]2c2cccc(Cl)c2F)CC1 [MI-519-52]
IC50 [1, 4]: < 1 µM
IC50 [2, 5]: < 1 µM
IC50 [2, 6]: > 3 µM
IC50 [2, 9]: < 1 µM
IC50 [3, 7]: > 5 µM
IC50 [3, 8]: < 1 µM

CC(C)(C)C[C@H]1N[C@@H](C(=O)NC2CN(C(=O)NC3CCCCC3)C2)[C@H](c2cccc(Cl)c2F)[C@@]12C(=O)Nc1cc(Cl)ccc12 [MI-913]
IC50 [1, 10]: < 3 µM
IC50 [2, 11]: < 5 µM
IC50 [2, 12]: 4.9 µM
IC50 ([2]; SJSA-1, Table 19A, SJSA-1 cells, p53 wild-type, cell growth, read-out: SJSA-1 (p53 wild-type) IC50): < 5 µM
IC50 [3, 13]: 8.8 µM
IC50 [3, 14]: < 5 µM

CC(C)(C)C[C@H]1N[C@@H](C(=O)N[C@@H]2CCN(CCF)C[C@@H]2F)[C@H](c2cccc(Cl)c2F)[C@@]12C(=O)Nc1cc(Cl)ccc12 [MI-519-59]
IC50 [1, 4]: < 1 µM
IC50 [2, 5]: < 3 µM
IC50 [2, 6]: > 10 µM
IC50 [2, 9]: < 3 µM
IC50 [3, 7]: > 10 µM
IC50 [3, 8]: < 1 µM

CC(C)(C)C[C@H]1N[C@@H](C(=O)N2CCN(C(=O)C3CC3)CC2)[C@H](c2cccc(Cl)c2)[C@@]12C(=O)N(C(=O)C1CC1)c1cc(Cl)c(F)cc12 [MI-743B]
IC50 [1, 15]: > 100 µM
IC50 [2, 16]: > 1 µM
IC50 [2, 17]: > 1 µM
IC50 [3, 18]: > 1 µM
IC50 [3, 19]: > 1 µM

CC(=O)N1CCN(C(=O)[C@@H]2N[C@H](CC(C)(C)C)[C@]3(C(=O)Nc4cc(Cl)c(F)cc43)[C@H]2c2cccc(Cl)c2)CC1 [MI-742]
IC50 [1, 10]: < 10 µM
IC50 [2, 11]: 2.2 ± 0.3 µM
IC50 [2, 12]: 10.2 ± 4.8 µM
IC50 [3, 13]: 19.9 ± 10.3 µM
IC50 [3, 14]: 1.7 ± 0.1 µM

CC(C)CC(C)(C)C[C@H]1N(C)[C@@H](C(=O)NCC[C@H](O)CO)[C@H](c2cccc(Cl)c2F)[C@@]12C(=O)Nc1cc(Cl)c(F)cc12 [MI-733]
IC50 [1, 15]: > 1 µM
IC50 [2, 16]: 2.2 ± 0.5 µM
IC50 [2, 17]: 5.4 ± 1.7 µM
IC50 [3, 18]: 8.7 ± 0.9 µM
IC50 [3, 19]: 2.4 ± 0.3 µM

CC(C)(C)C[C@H]1N[C@@H](C(=O)NC2CCN(CCC(F)(F)F)CC2)[C@H](c2cccc(Cl)c2F)[C@@]12C(=O)Nc1cc(Cl)ccc12 [MI-519-57-1]
IC50 [1, 4]: < 1 µM
IC50 [2, 5]: < 3 µM
IC50 [2, 6]: 8.8 µM
IC50 [2, 9]: < 3 µM
IC50 [3, 7]: 9.5 µM
IC50 [3, 8]: < 3 µM

CN1[C@@H](C(=O)NCC[C@H](O)CO)[C@H](c2cccc(Cl)c2)[C@@]2(C(=O)Nc3cc(Cl)c(F)cc32)[C@H]1CCC1CCCC1 [MI-713]
IC50 [1, 15]: < 10 µM
IC50 [2, 16]: 2.7 ± 0.7 µM
IC50 [2, 17]: 6.1 ± 2.1 µM
IC50 [3, 18]: 4.3 ± 0.7 µM
IC50 [3, 19]: 4.9 ± 1.4 µM

O=C(NCC[C@H](O)CO)[C@@H]1N[C@H](CCCc2ccccc2)[C@]2(C(=O)Nc3cc(Cl)c(F)cc32)[C@H]1c1cccc(Cl)c1 [MI-704]
IC50 [1, 15]: > 1 µM
IC50 [2, 16]: 6.8 ± 0.2 µM
IC50 [2, 17]: 18 ± 5.1 µM
IC50 [3, 18]: 12.1 ± 1 µM
IC50 [3, 19]: 3 ± 0.9 µM

O=C(NCC[C@H](O)CO)[C@@H]1N[C@H](CC2CCCCC2)[C@]2(C(=O)Nc3cc(Cl)c(F)cc32)[C@H]1c1cccc(Cl)c1 [MI-716A]
IC50 [1, 15]: < 3 µM
IC50 [2, 16]: 1.1 ± 0.5 µM
IC50 [2, 17]: 11.5 ± 0.5 µM
IC50 [3, 18]: > 10 µM
IC50 [3, 19]: 1 ± 0.5 µM

CCC(C)(C)C[C@H]1N[C@@H](C(=O)NCC[C@H](O)CO)[C@H](c2cccc(Cl)c2)[C@@]12C(=O)Nc1cc(Cl)c(F)cc12 [MI-720]
IC50 [1, 15]: < 1 µM
IC50 [2, 16]: 0.76 ± 0.1 µM
IC50 [2, 17]: 15.2 ± 3.2 µM
IC50 [3, 18]: 19.5 ± 5.6 µM
IC50 [3, 19]: 0.69 µM

CC(C)(C)C[C@H]1N[C@@H](C(=O)NCC[C@H](O)CO)[C@H](Cc2ccccc2)[C@@]12C(=O)Nc1cc(Cl)c(F)cc12 [MI-319-23]
IC50 ([1]; Table 19C, read-out: Bidning affinities to MDM2 as determined using FP assay IC50): > 10 µM
IC50 ([2]; LNCaP, Table 19C, LNCaP cells, read-out: Cell growth inhibition using WST assay, LNCaP IC50): > 10 µM
IC50 ([2]; PC-3, Table 19C, PC3 cells, read-out: Cell growth inhibition using WST assay, PC3 IC50): > 10 µM
IC50 ([3]; HCT-116, read-out: Cell growth inhibition using WST assay, HCT116 p53KO IC50, Table 19C, HCT116 p53KO): > 10 µM
IC50 ([3]; HCT-116, read-out: Cell growth inhibition using WST assay, HCT116 p53WT IC50, Table 19C, HCT116 p53WT): > 10 µM

— patent US9079913B2, “Spiro-oxindole MDM2 antagonists” (The Regents of the University of Michigan, priority 2009, dated 2015)
